Patent US20240148821A1, “PHARMACEUTICAL USE OF CYCLIC PEPTIDE COMPOUND” (CHUGAI SEIYAKU KABUSHIKI KAISHA, priority 2021, published 2024)
Numbered stars: 1 amine (or outer) side, 2 acyl side, 3 side chain; on linkers, the order of the positions; unused ones are H or OH. Bridge positions count the residues as written; N and C are the ends. Square brackets hold non-standard residues; d marks the D form. Peptide text beside a SMILES is read from it. * marks the point of attachment. hPhe(3,5-F2-4-CF3) = N[C@@H](CCc1cc(F)c(C(F)(F)F)c(F)c1)C(=O)O; hPhe(3-Cl-4-CF3) = N[C@@H](CCc1ccc(C(F)(F)F)c(Cl)c1)C(=O)O; hPhe(3-F,4-CF3) = N[C@@H](CCc1ccc(C(F)(F)F)c(F)c1)C(=O)O; NMePhe(4-CF3) = CN[C@@H](Cc1ccc(C(F)(F)F)cc1)C(=O)O; NMePhe(4-Cl) = CN[C@@H](Cc1ccc(Cl)cc1)C(=O)O; X5 = CCN([C@@H](CC1CCCCC1)C(=O)[*:2])[*:1]; hPhe(4-Cl) = N[C@@H](CCc1ccc(Cl)cc1)C(=O)O; NMedβ3hAla = C[C@H](CC(=O)[*:2])N(C)[*:1]; NMeAla(cPent) = CN[C@@H](CC1CCCC1)C(=O)O; Pro(4,4-F2) = O=C(O)[C@@H]1CC(F)(F)CN1; NMe4Pal = CN[C@@H](Cc1ccncc1)C(=O)O; NMeCha = CN[C@@H](CC1CCCCC1)C(=O)O; NMeChg = CN[C@H](C(=O)O)C1CCCCC1; N(CH2CH2)2CF2 = FC1(F)CCN(*)CC1; NMeD = CN[C@@H](CC(=O)O)C(=O)O; NMeL = CN[C@@H](CC(C)C)C(=O)O; NMeAc5c = CNC1(C(=O)O)CCCC1; NMeV = CN[C@H](C(=O)O)C(C)C; d(β3hA) = C[C@@H](N)CC(=O)O; NMeA = CN[C@@H](C)C(=O)O; Piperidide = C1CCN(*)CC1; Ac5c = NC1(C(=O)O)CCCC1; Aze = O=C(O)[C@@H]1CCN1; Ac4c = NC1(C(=O)O)CCC1; Aib = CC(C)(N)C(=O)O; Sar = CNCC(=O)O

target: protein-protein interaction between Kras and SOS1 (biotin-tagged human Kras loaded with GDP, His-tagged human SOS1) (Homo sapiens (Human), UniProt P01116, G12D); assay: Protein-protein interaction inhibition between Kras and SOS1 (KrasG12D-SOS PPI) using AlphaScreen; assay type: biochemical; settings: AlphaScreen; biotin-tagged human Kras loaded with GDP, His-tagged human SOS1; read-out: KRAS G12D-SOS PPI IC50;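 also: kras produced in E. coli, Ni-coupled donor beads and streptavidin acceptor beads, excitation 680 nm with emission detected at 520–620 nm via singlet oxygen transfer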

**Q.** Which IC50 does the source give for `CC[C@H](C)[C@@H]1NC(=O)[C@H](CC(C)C)N(C)C(=O)C[C@@H](C)N(C)C(=O)[C@H](CC(C)C)NC(=O)C2(CCCC2)N(C)C(=O)[C@H](CC(C)C)NC(=O)[C@H](CCc2ccc(C(F)(F)F)c(F)c2)NC(=O)CN(C)C(=O)[C@H](CC2CCCCC2)N(C)C(=O)CN(C)C(=O)CN(C)C1=O` [Compound 2] (cyclo(I[Sar][Sar][NMeCha][Sar][hPhe(3-F,4-CF3)]L[NMeAc5c]L[NMedβ3hAla][NMeL])) here?
**A.** Its IC50 is 15 nM.

**Q.** Which IC50 does the source give for `CC[C@H](C)[C@@H]1NC(=O)[C@H](CC(C)C)N(C)C(=O)C[C@@H](C(=O)N2CCCCC2)NC(=O)[C@H](C(C)C)N(C)C(=O)C2(CCCC2)NC(=O)[C@H](CC(=O)N2CCC(F)(F)CC2)N(C)C(=O)[C@H](CCc2ccc(C(F)(F)F)c(Cl)c2)NC(=O)CN(C)C(=O)[C@H](CC2CCCCC2)N(C)C(=O)CN(C)C(=O)CN(C)C1=O` [Compound 3] ([NMeL]I[Sar][Sar][NMeCha][Sar][hPhe(3-Cl-4-CF3)][NMeD](N(CH2CH2)2CF2)[Ac5c][NMeV]D-Piperidide; lactam N-11) here?
**A.** The IC50 was 310 nM.

**Q.** `CC[C@H](C)[C@@H]1NC(=O)[C@H](CC2CCCC2)N(C)C(=O)C[C@@H](C)NC(=O)[C@H](C(C)C)N(C)C(=O)C2(CCCC2)NC(=O)[C@@H]2CCCN2C(=O)[C@H](CCc2ccc(C(F)(F)F)c(Cl)c2)NC(=O)CN(C)C(=O)[C@H](CC2CCCCC2)N(C)C(=O)[C@@H]2CCN2C(=O)[C@H](C)N(C)C1=O` [Compound 8] (cyclo([Ac5c][NMeV][d(β3hA)][NMeAla(cPent)]I[NMeA][Aze][NMeCha][Sar][hPhe(3-Cl-4-CF3)]P)) was tested. Which IC50 did it give?
**A.** Its IC50 is 75 nM.

**Q.** How did the IC50 turn out when `CC[C@H](C)[C@@H]1NC(=O)[C@H](C)N(C)C(=O)C[C@@H](C)NC(=O)[C@H](CC(C)C)N(C)C(=O)C(C)(C)NC(=O)[C@H](CC(C)C)N(C)C(=O)[C@H](CCc2ccc(Cl)cc2)NC(=O)CN(C)C(=O)[C@H](Cc2ccc(Cl)cc2)N(C)C(=O)CN(C)C(=O)CN(C)C1=O` [Compound 19] (cyclo([Aib][NMeL][d(β3hA)][NMeA]I[Sar][Sar][NMePhe(4-Cl)][Sar][hPhe(4-Cl)][NMeL])) was run?
**A.** The IC50 was 50 nM.

**Q.** Which IC50 does the source give for `CC[C@H](C)[C@@H]1NC(=O)[C@H](CC(C)C)N(C)C(=O)C[C@@H](C(=O)N2CCCCC2)N(C)C(=O)[C@H](C(C)C)N(C)C(=O)C2(CCCC2)NC(=O)[C@@H]2CCCN2C(=O)[C@H](CCc2ccc(C(F)(F)F)c(Cl)c2)NC(=O)CN(C)C(=O)[C@H](CC2CCCCC2)N(CC)C(=O)[C@@H]2CCN2C(=O)[C@H](C)N(C)C1=O` [Compound 23] ([NMeL]I[NMeA][Aze][X5][Sar][hPhe(3-Cl-4-CF3)]P[Ac5c][NMeV][NMeD]-Piperidide; lactam N-11) here?
**A.** The IC50 was 2.7 nM.

**Q.** How did the IC50 turn out when `CC[C@H](C)[C@@H]1NC(=O)[C@H](CC(C)C)N(C)C(=O)C[C@@H](C)N(C)C(=O)[C@H](C2CCCCC2)N(C)C(=O)C2(CCC2)NC(=O)[C@@H]2CC(F)(F)CN2C(=O)[C@H](CCc2cc(F)c(C(F)(F)F)c(F)c2)NC(=O)CN(C)C(=O)[C@H](Cc2ccc(C(F)(F)F)cc2)N(C)C(=O)[C@@H]2CCN2C(=O)[C@H](C)N(C)C1=O` [Compound 34] (cyclo([Ac4c][NMeChg][NMedβ3hAla][NMeL]I[NMeA][Aze][NMePhe(4-CF3)][Sar][hPhe(3,5-F2-4-CF3)][Pro(4,4-F2)])) was run?
**A.** Its IC50 is 74 nM.

**Q.** `CC[C@H](C)[C@@H]1NC(=O)[C@H](CC(C)C)N(C)C(=O)C[C@@H](C(=O)N2CCCCC2)N(C)C(=O)[C@H](C2CCCCC2)N(C)C(=O)C2(CCCC2)NC(=O)[C@H](Cc2ccncc2)N(C)C(=O)[C@H](CCc2ccc(C(F)(F)F)c(Cl)c2)NC(=O)CN(C)C(=O)[C@H](CC2CCCCC2)N(C)C(=O)CN(C)C(=O)CN(C)C1=O` [Compound 36] ([NMeL]I[Sar][Sar][NMeCha][Sar][hPhe(3-Cl-4-CF3)][NMe4Pal][Ac5c][NMeChg][NMeD]-Piperidide; lactam N-11) was tested. Which IC50 did it give?
**A.** The IC50 was 4.7 nM.

**Q.** With `CC[C@H](C)[C@@H]1NC(=O)[C@H](CC2CCCC2)N(C)C(=O)C[C@@H](C(=O)N2CCCCC2)N(C)C(=O)[C@H](C(C)C)N(C)C(=O)C2(CCCC2)NC(=O)[C@@H]2CCCN2C(=O)[C@H](CCc2ccc(C(F)(F)F)c(Cl)c2)NC(=O)CN(C)C(=O)[C@H](CC2CCCCC2)N(C)C(=O)[C@@H]2CCN2C(=O)[C@H](C)N(C)C1=O` [Compound 37] ([NMeAla(cPent)]I[NMeA][Aze][NMeCha][Sar][hPhe(3-Cl-4-CF3)]P[Ac5c][NMeV][NMeD]-Piperidide; lactam N-11) as the compound, how does the IC50 read?
**A.** The IC50 was 17 nM.

**Q.** Which IC50 does the source give for `CC[C@H](C)[C@@H]1NC(=O)[C@H](CC(C)C)N(C)C(=O)C[C@@H](C)N(C)C(=O)[C@H](C2CCCCC2)N(C)C(=O)C2(CCCC2)NC(=O)[C@@H]2CCCN2C(=O)[C@H](CCc2cc(F)c(C(F)(F)F)c(F)c2)NC(=O)CN(C)C(=O)[C@H](Cc2ccc(C(F)(F)F)cc2)N(C)C(=O)[C@@H]2CCN2C(=O)[C@H](C)N(C)C1=O` [Compound 39] (cyclo([Ac5c][NMeChg][NMedβ3hAla][NMeL]I[NMeA][Aze][NMePhe(4-CF3)][Sar][hPhe(3,5-F2-4-CF3)]P)) here?
**A.** Its IC50 is 11 nM.
